According to ChEMBL document CHEMBL1201862, “PubChem BioAssay data set” (2004):
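In this assay, cells in 96-well plates receive the compound at five concentrations for 48 hours. Endpoints are linearly interpolated between the surrounding concentrations. GI50 marks 50% less growth.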 The source made the active and inactive calls. Rule as the data show it: active = GI50 up to about 1.1 µM and inactive = higher.

How the values were obtained:
Experiment in all cases: NCI-60 cell line screen, 48 h
CCRF-CEM = test system: CCRF-CEM
NCI/ADR-RES = test system: NCI/ADR-RES
NCI-H522 = test system: NCI-H522
RXF 393 = test system: RXF 393
OVCAR-4 = test system: OVCAR-4
T47D = test system: T47D
OVCAR-8 = test system: OVCAR-8
COLO 205 = test system: COLO 205
K562 = test system: K562
NCI-H226 = test system: NCI-H226
Malme-3M = test system: Malme-3M
SN12C = test system: SN12C
OVCAR-3 = test system: OVCAR-3
MDA-N = test system: MDA-N
U-251 = test system: U-251
SNB-75 = test system: SNB-75
SK-MEL-2 = test system: SK-MEL-2
ACHN = test system: ACHN
NCI-H23 = test system: NCI-H23
KM12 = test system: KM12
LOX IMVI = test system: LOX IMVI
BT-549 = test system: BT-549
SF-295 = test system: SF-295
HOP-62 = test system: HOP-62
Hs-578T = test system: Hs-578T
RPMI-8226 = test system: RPMI-8226
SNB-19 = test system: SNB-19
A498 = test system: A498
HT-29 = test system: HT-29
IGROV-1 = test system: IGROV-1
NCI-H460 = test system: NCI-H460
A549 = test system: A549
SF-268 = test system: SF-268
UACC-62 = test system: UACC-62
UACC-257 = test system: UACC-257
HCT-15 = test system: HCT-15
MDA-MB-231 = test system: MDA-MB-231
786-0 = test system: 786-0
HOP-92 = test system: HOP-92
EKVX = test system: EKVX
HL-60 = test system: HL-60
SW-620 = test system: SW-620
MCF7 = test system: MCF7
HCC 2998 = test system: HCC 2998
UO-31 = test system: UO-31
SK-MEL-28 = test system: SK-MEL-28
M14 = test system: M14
MOLT-4 = test system: MOLT-4
DU-145 = test system: DU-145
MDA-MB-435 = test system: MDA-MB-435
OVCAR-5 = test system: OVCAR-5
PC-3 = test system: PC-3
CAKI-1 = test system: CAKI-1
SK-MEL-5 = test system: SK-MEL-5
HCT-116 = test system: HCT-116
TK-10 = test system: TK-10
SF-539 = test system: SF-539
SK-OV-3 = test system: SK-OV-3
SR = test system: SR

Measured: GI50

O=C1OC2c3ccccc3C(=O)C2(c2ccccc2)N1c1ccccc1 (stereo not drawn)
> 200 µM: HCT-15
inactive: CCRF-CEM 128 µM | NCI/ADR-RES > 200 µM | NCI-H522 > 200 µM | RXF 393 > 200 µM | OVCAR-4 > 200 µM | T47D 174 µM | OVCAR-8 > 200 µM | COLO 205 86.1 µM | K562 139 µM | NCI-H226 > 200 µM | Malme-3M > 200 µM | SN12C > 200 µM | OVCAR-3 > 200 µM | MDA-N > 200 µM | U-251 > 200 µM | SNB-75 45.4 µM | SK-MEL-2 > 200 µM | ACHN > 200 µM | NCI-H23 > 200 µM | KM12 > 200 µM | LOX IMVI > 200 µM | BT-549 > 200 µM | SF-295 > 200 µM | HOP-62 > 200 µM | Hs-578T > 200 µM | RPMI-8226 132 µM | SNB-19 > 200 µM | A498 > 200 µM | HT-29 > 200 µM | IGROV-1 > 200 µM | NCI-H460 > 200 µM | A549 > 200 µM | SF-268 > 200 µM | UACC-62 > 200 µM | UACC-257 > 200 µM | MDA-MB-231 > 200 µM | 786-0 > 200 µM | HOP-92 > 200 µM | EKVX > 200 µM | HL-60 29.9 µM | SW-620 > 200 µM | MCF7 > 200 µM | HCC 2998 > 200 µM | UO-31 72.6 µM | SK-MEL-28 > 200 µM | M14 > 200 µM | MOLT-4 186 µM | DU-145 > 200 µM | MDA-MB-435 > 200 µM | OVCAR-5 > 200 µM | PC-3 183 µM | CAKI-1 121 µM | SK-MEL-5 > 200 µM | HCT-116 > 200 µM | TK-10 > 200 µM | SF-539 > 200 µM | SK-OV-3 > 200 µM

CC[C@]12C=CCN3CC[C@@]4(c5cc(Br)c(OC)cc5N(C)[C@H]4[C@@](O)(C(=O)NC(Cc4c[nH]c5ccccc45)C(=O)OC)[C@@H]1O)[C@@H]32 (stereo partly drawn)
inactive: CCRF-CEM 5.62 µM | NCI/ADR-RES 7.91 µM | NCI-H522 8.83 µM | RXF 393 19.1 µM | OVCAR-4 20.5 µM | T47D 5.2 µM | OVCAR-8 6.59 µM | COLO 205 3.46 µM | K562 5.37 µM | NCI-H226 10.8 µM | Malme-3M 11.6 µM | SN12C 29.4 µM | OVCAR-3 9.16 µM | MDA-N 23.3 µM | U-251 5.04 µM | SNB-75 > 100 µM | SK-MEL-2 25.2 µM | ACHN 17.5 µM | NCI-H23 45.1 µM | KM12 11 µM | LOX IMVI 4.6 µM | BT-549 7.94 µM | SF-295 9.46 µM | HOP-62 12.6 µM | Hs-578T 58.3 µM | RPMI-8226 2.94 µM | SNB-19 33.2 µM | HT-29 7.89 µM | IGROV-1 19.4 µM | A549 11.8 µM | SF-268 6.15 µM | UACC-62 24.3 µM | MDA-MB-231 30.6 µM | 786-0 45.5 µM | HOP-92 22.3 µM | EKVX 18.4 µM | HL-60 13.5 µM | SW-620 89.7 µM | MCF7 12.3 µM | UO-31 20.8 µM | SK-MEL-28 92.9 µM | M14 20.5 µM | MOLT-4 2.87 µM | DU-145 35.2 µM | MDA-MB-435 26.2 µM | OVCAR-5 71.4 µM | PC-3 8.2 µM | CAKI-1 86.1 µM | SR 4.33 µM | SK-MEL-5 7.31 µM | HCT-116 7.08 µM | SF-539 16.4 µM | SK-OV-3 > 100 µM
5.74 µM: HCT-15

Brc1ccc(/N=N/N2CCCC2)cc1
50.7 µM: HCT-15
inactive: CCRF-CEM 42 µM | NCI-H522 27.4 µM | RXF 393 81.7 µM | OVCAR-4 > 100 µM | T47D 14.4 µM | COLO 205 > 100 µM | K562 60 µM | NCI-H226 > 100 µM | Malme-3M > 100 µM | SN12C 59 µM | OVCAR-3 81.5 µM | MDA-N 64.9 µM | U-251 89.1 µM | SK-MEL-2 57.1 µM | ACHN 71.6 µM | NCI-H23 45.2 µM | KM12 70.3 µM | LOX IMVI 40.4 µM | BT-549 44.6 µM | SF-295 77.1 µM | HOP-62 > 100 µM | Hs-578T > 100 µM | RPMI-8226 51.1 µM | SNB-19 > 100 µM | A498 41.6 µM | HT-29 > 100 µM | IGROV-1 34.8 µM | NCI-H460 48.2 µM | A549 74.1 µM | SF-268 95.1 µM | UACC-62 > 100 µM | UACC-257 93.8 µM | MDA-MB-231 > 100 µM | 786-0 > 100 µM | HOP-92 27.2 µM | EKVX 66.7 µM | HL-60 38.8 µM | SW-620 > 100 µM | MCF7 65.8 µM | HCC 2998 40.6 µM | UO-31 32.4 µM | SK-MEL-28 > 100 µM | M14 > 100 µM | MOLT-4 28.6 µM | DU-145 49.7 µM | MDA-MB-435 48.1 µM | OVCAR-5 > 100 µM | PC-3 31.8 µM | CAKI-1 27.7 µM | SR 34.6 µM | SK-MEL-5 27.1 µM | HCT-116 58.6 µM | TK-10 82.4 µM | SF-539 > 100 µM | SK-OV-3 > 100 µM
